Where “and” joins values, the source holds several entries; their conditions need not be identical. Identical values can stand only once. Where no end group is shown, it is not given here.
Experiments:
[1] = Circulating (serum/plasma) UCN2 by ELISA; format: in vivo, mouse
Experimental: Plasma UCN2 and UCN3 measurements were made via ELISA according to manufacturer’s instructions (Kamiya Biomedical Company, Seattle, WA). Blood was collected via intracardiac stick. For ob/ob and db/db studies, blood was collected during ad lib feeding. For acute UCN2 dosing, blood was collected 20 min after dosing with UCN2 (Bachem, Bubendorf, Switzerland) dissolved in saline.

human CRHR2a (Gs) = target: T1, human CRHR2a (Gs) (Homo sapiens, UniProt Q13324); experiment: ebBRET effector membrane translocation assay (EMTA), Gs biosensor; format: cell-based; settings: comparison of concentration response curves; Gs at lower concentration
T1 construct: expressed in transfected cells; host or cells: HEK293 cells (Millipore Sigma), transient PEI co-transfection with biosensor plasmids at Domain Therapeutics
T1 sequence (Q13324 1-411): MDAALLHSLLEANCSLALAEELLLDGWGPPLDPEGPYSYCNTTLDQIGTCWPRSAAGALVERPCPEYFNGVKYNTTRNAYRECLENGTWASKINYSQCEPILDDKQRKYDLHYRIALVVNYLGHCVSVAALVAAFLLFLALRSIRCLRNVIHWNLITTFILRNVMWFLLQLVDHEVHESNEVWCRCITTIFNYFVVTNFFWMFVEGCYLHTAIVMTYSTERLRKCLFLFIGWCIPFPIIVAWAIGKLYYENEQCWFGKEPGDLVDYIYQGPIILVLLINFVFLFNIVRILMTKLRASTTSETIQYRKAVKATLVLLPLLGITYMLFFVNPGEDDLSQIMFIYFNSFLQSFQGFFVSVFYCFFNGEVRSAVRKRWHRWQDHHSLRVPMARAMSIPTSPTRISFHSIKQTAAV
Experimental: Typically, GPCR desensitization is carried out through the recruitment of β-Arrestins or alternative G-proteins to the receptor. To identify whether these proteins are recruited to CRHR2 in response to UCN2, enhanced bystander bioluminescence resonance energy transfer (ebBRET)-based effector membrane translocation assays (EMTA) were carried out in HEK293 cells[28],[29]. Cells were co-transfected with plasmids expressing unmodified CRHR2a (alpha isoform) and one of various pathway-specific biosensors. […]
Effector membrane translocation biosensor assays (bioSensAll®) were conducted at Domain Therapeutics NA Inc. (Montreal, QC, Canada) and described in cells[28],[29]. […] Briefly, DNA and PEI were diluted separately in 150 mM NaCl, mixed and then incubated for at least 20 min at room temperature (note: salmon sperm DNA (Invitrogen) was used to adjust the total amount of DNA transfected to a final quantity of 1 ug per mL of cell culture to be transfected). During the 20-minute incubation, HEK293 cells were detached, counted and resuspended into cell culture medium to a final density of 350,000 cells per mL. […] Cells were then incubated at room temperature for 10 min and BRET readings subsequently collected with a 0.4 s integration time on a Synergy NEO plate reader (BioTek Instruments, Inc., USA; filters: 400 nm/70 nm, 515 nm/20 nm). […]

[2] = tested on: soleus and gastrocnemius muscle; experiment: In vivo [3H]2-deoxyglucose uptake in soleus and gastrocnemius muscle; parameters: species or system mouse; settings: [3H]2DG; for 2DG Uptake, gastrocnemius muscle: individual animals (Fig. 2I); for 2DG Uptake, soleus muscle: individual animals (Fig. 2J)
Experimental: To determine 2-deoxy-glucose (2DG) uptake in soleus and gastrocnemius muscle, mice were fasted for 5 h and anaesthetized with isoflurane. […] 15 min following 2DG administration, blood was collected via intracardiac stick and soleus and gastrocnemius muscles were dissected and snap frozen in liquid nitrogen. Samples were stored at −80 C until processing. Blood was treated with BaOH2 and ZnSO4 and after centrifugation, radioactivity was determined via liquid scintillation counting (Tri-Carb 5110TR, PerkinElmer, Waltham, MA). Tissue was homogenized and mixed with water or BaOH2 and ZnSO4 to determine total and unphosphorylated 2DG content.

[3] = UCN2 1 mg/kg IP +Insulin 0.75 IU/kg
[4] = UCN2 1 mg/kg IP +Veh (no insulin)

What does the source list for “IVLSLDVPIGLLQILLEQARARAAREQATTNARILARVGHC-NH2 (C-terminus assumed) [UCN2, Urocortin 2]”?
Serum [UCN2] ([1]; WT mice, 20 min after 1 mg/kg UCN2 IP, individual animals (Fig. 2A)): -7.638 log[M] and -7.693 log[M] and -7.457 log[M] and -7.301 log[M] and -7.207 log[M] and -7.27 log[M] and -7.25 log[M] and -7.2975 log[M]; circulating concentration of UCN2, average ([1]; mice, single IP 1 mg/kg, 20 min after injection, n = 8): −7.4 log[M]; level at time molar at 20 min ([1]; mouse, plasma, mice, single IP 1 mg/kg, 20 min after injection, n = 8, read-out: circulating concentration of UCN2, average): 40 nM; UCN2 concentration for Gs activation versus engagement of Gi and β-Arrestin (human CRHR2a (Gs)): more than 10 fold; 2DG Uptake, gastrocnemius muscle [2, 3]: 17.97 µmol/g/h and 16.61 µmol/g/h and 11.65 µmol/g/h and 22.6 µmol/g/h and 21.1 µmol/g/h and 20.95 µmol/g/h and 16.15 µmol/g/h and 12.85 µmol/g/h; 2DG Uptake, soleus muscle [2, 3]: 25.34 µmol/g/h and 15.14 µmol/g/h and 16.51 µmol/g/h and 20.54 µmol/g/h and 24.42 µmol/g/h and 24.35 µmol/g/h and 25.91 µmol/g/h and 18.85 µmol/g/h; 2DG Uptake, gastrocnemius muscle [2, 4]: 2.37 µmol/g/h and 2.36 µmol/g/h and 2.81 µmol/g/h and 1.95 µmol/g/h and 2.97 µmol/g/h and 3.08 µmol/g/h and 2.83 µmol/g/h and 3.26 µmol/g/h; 2DG Uptake, soleus muscle [2, 4]: 2.44 µmol/g/h and 2.26 µmol/g/h and 2.42 µmol/g/h and 2.39 µmol/g/h and 2.31 µmol/g/h and 2.62 µmol/g/h and 3.69 µmol/g/h
